The source of these data is patent publication US20240384268A1, “Oligonucleotides” (Hudson Institute of Medical Research, priority 2021, published 2024).

In the oligonucleotide strings, read from the 5' end, every base follows the letter of its sugar. An asterisk marks phosphorothioate; unmarked linkages are phosphodiester. Other units and linkages are bracketed, terminal groups are in braces. A string of capitals states the bases alone. d = 2'-deoxy (DNA); m = 2'-O-methyl

The target in the series is T1, human TLR9 (Homo sapiens, UniProt Q9NR96).
T1 construct: HA; host or cells: 293XL-hTLR9-HA (HEK293)
T1 sequence (Q9NR96 26-1032): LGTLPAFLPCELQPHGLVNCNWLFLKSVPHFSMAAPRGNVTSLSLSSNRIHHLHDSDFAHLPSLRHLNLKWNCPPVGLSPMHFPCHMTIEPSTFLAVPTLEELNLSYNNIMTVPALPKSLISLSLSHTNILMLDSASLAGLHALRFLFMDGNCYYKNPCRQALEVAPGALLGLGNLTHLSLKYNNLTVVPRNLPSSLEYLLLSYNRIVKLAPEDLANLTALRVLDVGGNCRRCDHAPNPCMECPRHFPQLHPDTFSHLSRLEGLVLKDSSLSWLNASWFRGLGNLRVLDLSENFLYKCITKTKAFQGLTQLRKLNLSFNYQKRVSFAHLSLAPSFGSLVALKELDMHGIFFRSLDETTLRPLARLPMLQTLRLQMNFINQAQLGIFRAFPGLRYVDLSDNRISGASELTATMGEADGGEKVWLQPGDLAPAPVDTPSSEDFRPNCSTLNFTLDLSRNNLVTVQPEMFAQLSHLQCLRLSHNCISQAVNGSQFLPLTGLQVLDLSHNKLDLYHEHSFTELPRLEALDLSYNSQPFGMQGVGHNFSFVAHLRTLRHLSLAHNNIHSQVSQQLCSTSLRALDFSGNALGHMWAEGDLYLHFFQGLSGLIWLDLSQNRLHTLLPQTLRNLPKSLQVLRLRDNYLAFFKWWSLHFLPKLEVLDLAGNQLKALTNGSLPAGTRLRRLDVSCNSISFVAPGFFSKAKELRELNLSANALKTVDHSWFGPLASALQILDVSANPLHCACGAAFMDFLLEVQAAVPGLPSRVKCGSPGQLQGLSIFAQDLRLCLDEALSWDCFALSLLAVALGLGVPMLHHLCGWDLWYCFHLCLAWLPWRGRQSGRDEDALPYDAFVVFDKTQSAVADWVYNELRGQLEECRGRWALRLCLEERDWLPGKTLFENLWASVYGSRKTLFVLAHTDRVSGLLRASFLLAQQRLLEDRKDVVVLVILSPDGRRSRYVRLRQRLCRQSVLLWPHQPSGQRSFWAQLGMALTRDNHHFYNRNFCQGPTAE
Description: HEK-TLR9 NF-κB-luciferase reporter, ODN2006 stimulation. Conditions: HEK-TLR9; 500 nM ASO 45 min, then 200 nM ODN2006 overnight; percentage of ODN2006 only. Format: cell-based. (In general: A reporter such as luciferase makes a cellular process visible.)
“mC*mA*mC*mU*mG*T*A*T*T*T*T*A*T*T*A*mC*mA*mG*mA*mA (mC*mA*mC*mU*mG*dT*dA*dT*dT*dT*dT*dA*dT*dT*dA*mC*mA*mG*mA*mA; antisense) [[LINC-PINT]2990]”: the “TLR9-500 nM: averaged NF-κB-Luciferase relative to ODN2006” value came out at 117.42%.

“mC*mA*mG*mG*mC*C*T*C*C*A*G*T*G*T*C*mU*mU*mC*mU*mC (mC*mA*mG*mG*mC*dC*dT*dC*dC*dA*dG*dT*dG*dT*dC*mU*mU*mC*mU*mC; antisense) [[CDKN2B-AS1]2219]”: the “TLR9-500 nM: averaged NF-κB-Luciferase relative to ODN2006” value worked out at 66.99%.

For the substance “mC*mA*mU*mC*mC*C*T*T*C*T*G*C*T*G*C*mC*mA*mA*mG*mC (mC*mA*mU*mC*mC*dC*dT*dT*dC*dT*dG*dC*dT*dG*dC*mC*mA*mA*mG*mC; antisense) [[LINC-PINT]98]”, the “TLR9-500 nM: averaged NF-κB-Luciferase relative to ODN2006” value worked out at 65.09%.

Turning to “mC*mC*mA*mU*mC*C*C*T*T*C*T*G*C*T*G*mC*mC*mA*mA*mG (mC*mC*mA*mU*mC*dC*dC*dT*dT*dC*dT*dG*dC*dT*dG*mC*mC*mA*mA*mG; antisense) [ILING-PINT199]”, the “TLR9-500 nM: averaged NF-κB-Luciferase relative to ODN2006” value came to 92.72%.

As for “mC*mC*mA*mU*mG*T*C*C*C*A*G*G*C*C*T*mC*mC*mA*mG*mU (CCAUGTCCCAGGCCTCCAGU; sugars from the 5' end m5 d10 m5, all phosphorothioate, methylation of C not given here) [[CDKN2B-AS1]2227]”, the “TLR9-500 nM: averaged NF-κB-Luciferase relative to ODN2006” value stood at 48.79%.

Take “mC*mC*mC*mU*mA*A*T*G*C*T*T*T*C*C*T*mC*mU*mC*mC*mA (mC*mC*mC*mU*mA*dA*dT*dG*dC*dT*dT*dT*dC*dC*dT*mC*mU*mC*mC*mA; antisense) [[LINC-PINT1877 KL]”: the “TLR9-500 nM: averaged NF-κB-Luciferase relative to ODN2006” value is listed as 86.47%.

Take “mC*mC*mC*mU*mU*C*T*C*T*C*T*G*G*T*C*mC*mC*mA*mU*mC (mC*mC*mC*mU*mU*dC*dT*dC*dT*dC*dT*dG*dG*dT*dC*mC*mC*mA*mU*mC; antisense) [[LINC-PINT]114]”: the “TLR9-500 nM: averaged NF-κB-Luciferase relative to ODN2006” value was 62.09%.

“mC*mC*mU*mA*mG*A*A*A*G*A*A*G*C*A*A*mA*mG*mA*mU*mU (mC*mC*mU*mA*mG*dA*dA*dA*dG*dA*dA*dG*dC*dA*dA*mA*mG*mA*mU*mU) [[CDKN2B-AS1]1522]”: the “TLR9-500 nM: averaged NF-κB-Luciferase relative to ODN2006” value stood at 42.44%.

On to “mC*mC*mU*mU*mC*T*C*T*C*T*G*GT*C*C*mC*mA*mU*mC*mC (CCUUCTCTCTGGTCCCAUCC; antisense; chemistry not fully specified) [[LINC-PINT]113]”, for which the “TLR9-500 nM: averaged NF-κB-Luciferase relative to ODN2006” value is on record as 55.47%.

For the substance “mC*mC*mU*mU*mC*T*G*C*T*G*C*C*A*A*G*mC*mC*mC*mC*mA (mC*mC*mU*mU*mC*dT*dG*dC*dT*dG*dC*dC*dA*dA*dG*mC*mC*mC*mC*mA; antisense) [[LINC-PINT]94]”, the “TLR9-500 nM: averaged NF-κB-Luciferase relative to ODN2006” value came to 96.69%.

For “mC*mU*mC*mU*mC*T*G*G*T*C*C*C*A*T*C*mC*mC*mU*mU*mC (mC*mU*mC*mU*mC*dT*dG*dG*dT*dC*dC*dC*dA*dT*dC*mC*mC*mU*mU*mC; antisense) [[LINC-PINT]109]”, the “TLR9-500 nM: averaged NF-κB-Luciferase relative to ODN2006” value stood at 89.85%.

As for “mC*mU*mU*mC*mU*C*T*C*T*G*G*T*C*C*C*mA*mU*mC*mC*mC (mC*mU*mU*mC*mU*dC*dT*dC*dT*dG*dG*dT*dC*dC*dC*mA*mU*mC*mC*mC) [[LINC-PINT]112]”, the “TLR9-500 nM: averaged NF-κB-Luciferase relative to ODN2006” value was 64.35%.

Consider “mC*mU*mU*mU*mA*T*A*T*T*A*C*A*A*A*G*mC*mU*mA*mC*mU (mC*mU*mU*mU*mA*dT*dA*dT*dT*dA*dC*dA*dA*dA*dG*mC*mU*mA*mC*mU; antisense) [[LINC-PINT]2755]”, for which the “TLR9-500 nM: averaged NF-κB-Luciferase relative to ODN2006” value was found to be 84.43%.

Turning to “mG*mA*mA*mA*mA*G*A*T*T*A*T*C*T*T*C*mU*mU*mU*mU*mA (GAAAAGATTATCTTCUUUUA; sugars from the 5' end m5 d10 m5, all phosphorothioate, methylation of C not given here) [[CDKN2B-AS1]2134]”, the “TLR9-500 nM: averaged NF-κB-Luciferase relative to ODN2006” value is given as 61.11%.

For “mG*mA*mU*mG*mG*T*T*C*C*A*G*T*C*C*C*mU*mC*mU*mU*mC (GAUGGTTCCAGTCCCUCUUC; antisense; sugars from the 5' end m5 d10 m5, all phosphorothioate, methylation of C not given here) [[LINC-PINT]1497.1]”, the “TLR9-500 nM: averaged NF-κB-Luciferase relative to ODN2006” value was 80.47%.

In the case of “mG*mA*mU*mU*mA*A*A*A*C*A*G*A*T*T*A*mA*mU*mA*mC*mA (mG*mA*mU*mU*mA*dA*dA*dA*dC*dA*dG*dA*dT*dT*dA*mA*mU*mA*mC*mA) [[CDKN2B-AS1]1773]”, the “TLR9-500 nM: averaged NF-κB-Luciferase relative to ODN2006” value came out at 44.97%.

On to “mG*mC*mA*mA*mG*G*C*A*G*A*G*A*A*A*C*mU*mC*mC*mA*mG (GCAAGGCAGAGAAACUCCAG; sugars from the 5' end m5 d10 m5, all phosphorothioate, methylation of C not given here) [[LINC-PINT]1315 KL]”, for which the “TLR9-500 nM: averaged NF-κB-Luciferase relative to ODN2006” value turned out to be 53.46%.

On to “mG*mC*mG*mU*mA*G*T*T*T*C*T*C*T*T*C*mC*mU*mC*mC*mC (GCGUAGTTTCTCTTCCUCCC; sugars from the 5' end m5 d10 m5, all phosphorothioate, methylation of C not given here) [[LINC-PINT]935 KL]”, for which the “TLR9-500 nM: averaged NF-κB-Luciferase relative to ODN2006” value is listed as 52.04%.

In the case of “mG*mG*mA*mU*mU*A*A*A*A*C*A*G*A*T*T*mA*mA*mU*mA*mC (GGAUUAAAACAGATTAAUAC; sugars from the 5' end m5 d10 m5, all phosphorothioate, methylation of C not given here) [[CDKN2B-AS1]1774]”, the “TLR9-500 nM: averaged NF-κB-Luciferase relative to ODN2006” value amounted to 27.79%.

For the substance “mG*mG*mG*mU*mC*T*C*C*T*C*C*A*C*A*C*mC*mC*mU*mU*mC (GGGUCTCCTCCACACCCUUC; antisense; sugars from the 5' end m5 d10 m5, all phosphorothioate, methylation of C not given here) [[LINC-PINT]128]”, the “TLR9-500 nM: averaged NF-κB-Luciferase relative to ODN2006” value is on record as 94.51%.

In the case of “mG*mG*mU*mC*mC*C*A*T*C*C*C*T*T*C*T*mG*mC*mU*mG*mC (GGUCCCATCCCTTCTGCUGC; sugars from the 5' end m5 d10 m5, all phosphorothioate, methylation of C not given here) [[LINC-PINT]103]”, the “TLR9-500 nM: averaged NF-κB-Luciferase relative to ODN2006” value is 88.75%.

For “mG*mG*mU*mC*mU*C*C*T*C*C*A*C*A*C*C*mC*mU*mU*mC*mU (mG*mG*mU*mC*mU*dC*dC*dT*dC*dC*dA*dC*dA*dC*dC*mC*mU*mU*mC*mU; antisense) [[LINC-PINT]127]”, the “TLR9-500 nM: averaged NF-κB-Luciferase relative to ODN2006” value is 77.91%.

On to “mG*mG*mU*mG*mG*C*C*A*C*A*G*G*C*A*A*mC*mG*mU*mC*mA (GGUGGCCACAGGCAACGUCA; antisense; sugars from the 5' end m5 d10 m5, all phosphorothioate, methylation of C not given here) [[CDKN2B-AS1]2196]”, for which the “TLR9-500 nM: averaged NF-κB-Luciferase relative to ODN2006” value was determined as 97.04%.

On to “mG*mU*mC*mA*mA*A*C*C*T*A*G*A*A*A*G*mA*mA*mG*mC*mA (mG*mU*mC*mA*mA*dA*dC*dC*dT*dA*dG*dA*dA*dA*dG*mA*mA*mG*mC*mA; antisense) [[CDKN2B-AS1]1528]”, for which the “TLR9-500 nM: averaged NF-κB-Luciferase relative to ODN2006” value is given as 68.13%.

Consider “mG*mU*mC*mC*mC*A*G*G*C*C*T*C*C*A*G*mU*mG*mU*mC*mU (mG*mU*mC*mC*mC*dA*dG*dG*dC*dC*dT*dC*dC*dA*dG*mU*mG*mU*mC*mU; antisense) [[CDKN2B-AS1]2223]”, for which the “TLR9-500 nM: averaged NF-κB-Luciferase relative to ODN2006” value amounted to 67.61%.
